Like-named read-outs stand apart in the source and are kept apart here.
Legend:
[1] = test system: tumor cells with a PI3Kα mutation (e.g., MDA-MB-361 and T47D); assay: Proliferation of tumor cells with PI3Kα mutation; format: cell-based; conditions: Homo sapiens
p110β/p85α = p110β/p85α (Homo sapiens (Human), UniProt P42338); assay: PI 3-Kinase (human) HTRF assay, p110β/p85α; format: biochemical
p110α/p85α = p110α/p85α (Homo sapiens (Human), UniProt P42336); assay: PI 3-Kinase (human) HTRF assay, p110α/p85α; format: biochemical
Chain of p110α/p85α (P42336 whole entry): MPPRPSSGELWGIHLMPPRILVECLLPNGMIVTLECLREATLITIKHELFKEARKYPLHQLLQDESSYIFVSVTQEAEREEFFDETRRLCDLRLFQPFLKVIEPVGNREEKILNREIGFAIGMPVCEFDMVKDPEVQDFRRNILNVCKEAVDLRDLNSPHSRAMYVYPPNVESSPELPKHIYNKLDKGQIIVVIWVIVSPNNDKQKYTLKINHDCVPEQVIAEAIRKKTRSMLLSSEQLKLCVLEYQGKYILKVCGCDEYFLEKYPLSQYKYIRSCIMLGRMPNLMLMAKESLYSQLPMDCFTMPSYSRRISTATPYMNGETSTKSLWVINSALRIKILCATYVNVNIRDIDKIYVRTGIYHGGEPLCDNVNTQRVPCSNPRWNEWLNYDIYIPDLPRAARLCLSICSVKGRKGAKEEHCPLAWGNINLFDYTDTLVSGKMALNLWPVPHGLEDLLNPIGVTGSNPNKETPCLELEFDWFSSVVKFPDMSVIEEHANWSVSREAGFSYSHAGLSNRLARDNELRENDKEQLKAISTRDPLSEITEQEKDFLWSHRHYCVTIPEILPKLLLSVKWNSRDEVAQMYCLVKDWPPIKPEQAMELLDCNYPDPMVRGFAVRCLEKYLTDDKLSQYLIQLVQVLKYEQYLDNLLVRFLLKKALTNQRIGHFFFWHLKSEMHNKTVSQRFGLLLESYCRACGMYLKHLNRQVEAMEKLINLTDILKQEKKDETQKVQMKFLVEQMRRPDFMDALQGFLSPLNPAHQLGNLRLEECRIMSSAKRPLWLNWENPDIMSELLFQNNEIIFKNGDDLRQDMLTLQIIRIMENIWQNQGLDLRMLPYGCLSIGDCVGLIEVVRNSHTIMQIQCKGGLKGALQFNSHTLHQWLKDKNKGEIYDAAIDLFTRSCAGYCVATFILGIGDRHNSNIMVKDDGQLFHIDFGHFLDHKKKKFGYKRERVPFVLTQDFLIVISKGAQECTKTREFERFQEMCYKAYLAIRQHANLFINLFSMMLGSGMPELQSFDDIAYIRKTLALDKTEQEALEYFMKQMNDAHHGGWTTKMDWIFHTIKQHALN
Chain of p110α/p85α (P27986 whole entry partner): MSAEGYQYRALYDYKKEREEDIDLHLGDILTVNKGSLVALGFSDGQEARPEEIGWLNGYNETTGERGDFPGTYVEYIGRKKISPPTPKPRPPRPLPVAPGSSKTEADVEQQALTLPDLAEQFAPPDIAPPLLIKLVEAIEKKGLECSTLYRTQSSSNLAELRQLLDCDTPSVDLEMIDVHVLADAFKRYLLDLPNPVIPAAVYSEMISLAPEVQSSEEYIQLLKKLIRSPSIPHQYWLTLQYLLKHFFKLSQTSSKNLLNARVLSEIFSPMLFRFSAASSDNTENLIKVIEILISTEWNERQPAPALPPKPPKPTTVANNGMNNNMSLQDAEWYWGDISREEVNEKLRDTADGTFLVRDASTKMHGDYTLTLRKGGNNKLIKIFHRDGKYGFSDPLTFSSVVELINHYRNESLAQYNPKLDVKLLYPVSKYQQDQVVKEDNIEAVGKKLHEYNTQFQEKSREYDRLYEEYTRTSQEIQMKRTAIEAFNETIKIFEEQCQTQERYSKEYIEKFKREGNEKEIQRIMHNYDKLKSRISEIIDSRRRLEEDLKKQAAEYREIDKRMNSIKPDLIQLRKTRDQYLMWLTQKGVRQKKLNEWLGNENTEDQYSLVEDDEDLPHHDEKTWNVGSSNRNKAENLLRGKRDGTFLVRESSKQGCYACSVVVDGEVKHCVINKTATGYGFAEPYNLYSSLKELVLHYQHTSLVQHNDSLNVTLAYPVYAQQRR

p110γ = p110γ (Homo sapiens (Human), UniProt P48736); assay: PI 3-Kinase (human) HTRF assay, p110γ; format: biochemical
Chain of p110γ (P48736 whole entry): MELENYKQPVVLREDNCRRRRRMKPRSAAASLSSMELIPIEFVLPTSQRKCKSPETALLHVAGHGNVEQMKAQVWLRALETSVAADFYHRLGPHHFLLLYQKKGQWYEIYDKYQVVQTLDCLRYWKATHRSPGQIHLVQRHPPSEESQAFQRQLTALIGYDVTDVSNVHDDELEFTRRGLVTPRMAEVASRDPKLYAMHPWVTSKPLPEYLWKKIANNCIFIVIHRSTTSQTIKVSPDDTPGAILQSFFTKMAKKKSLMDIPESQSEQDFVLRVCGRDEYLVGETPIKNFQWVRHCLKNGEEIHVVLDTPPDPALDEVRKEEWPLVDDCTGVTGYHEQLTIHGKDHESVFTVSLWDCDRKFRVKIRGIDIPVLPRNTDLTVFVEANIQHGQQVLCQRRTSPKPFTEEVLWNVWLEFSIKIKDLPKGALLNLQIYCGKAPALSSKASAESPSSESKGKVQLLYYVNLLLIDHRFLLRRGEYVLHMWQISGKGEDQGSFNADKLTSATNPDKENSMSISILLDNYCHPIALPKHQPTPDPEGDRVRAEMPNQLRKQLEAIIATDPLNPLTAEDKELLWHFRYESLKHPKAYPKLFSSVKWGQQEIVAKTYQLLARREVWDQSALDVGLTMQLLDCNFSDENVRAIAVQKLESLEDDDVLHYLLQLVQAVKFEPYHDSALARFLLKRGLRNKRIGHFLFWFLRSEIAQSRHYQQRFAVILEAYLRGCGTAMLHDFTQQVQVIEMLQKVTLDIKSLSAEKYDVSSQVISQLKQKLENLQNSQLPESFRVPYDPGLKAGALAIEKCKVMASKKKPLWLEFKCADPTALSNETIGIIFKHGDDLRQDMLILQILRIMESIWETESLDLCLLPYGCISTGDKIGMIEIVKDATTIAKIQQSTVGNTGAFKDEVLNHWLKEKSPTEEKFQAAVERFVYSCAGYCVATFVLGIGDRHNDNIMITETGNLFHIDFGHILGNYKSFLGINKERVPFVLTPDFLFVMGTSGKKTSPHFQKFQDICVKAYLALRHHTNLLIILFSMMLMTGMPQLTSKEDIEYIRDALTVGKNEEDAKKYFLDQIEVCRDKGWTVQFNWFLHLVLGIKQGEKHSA

p110δ/p85α = p110δ/p85α (Homo sapiens (Human), UniProt O00329); assay: PI 3-Kinase (human) HTRF assay, p110δ/p85α; format: biochemical
Chain of p110δ/p85α (O00329 whole entry): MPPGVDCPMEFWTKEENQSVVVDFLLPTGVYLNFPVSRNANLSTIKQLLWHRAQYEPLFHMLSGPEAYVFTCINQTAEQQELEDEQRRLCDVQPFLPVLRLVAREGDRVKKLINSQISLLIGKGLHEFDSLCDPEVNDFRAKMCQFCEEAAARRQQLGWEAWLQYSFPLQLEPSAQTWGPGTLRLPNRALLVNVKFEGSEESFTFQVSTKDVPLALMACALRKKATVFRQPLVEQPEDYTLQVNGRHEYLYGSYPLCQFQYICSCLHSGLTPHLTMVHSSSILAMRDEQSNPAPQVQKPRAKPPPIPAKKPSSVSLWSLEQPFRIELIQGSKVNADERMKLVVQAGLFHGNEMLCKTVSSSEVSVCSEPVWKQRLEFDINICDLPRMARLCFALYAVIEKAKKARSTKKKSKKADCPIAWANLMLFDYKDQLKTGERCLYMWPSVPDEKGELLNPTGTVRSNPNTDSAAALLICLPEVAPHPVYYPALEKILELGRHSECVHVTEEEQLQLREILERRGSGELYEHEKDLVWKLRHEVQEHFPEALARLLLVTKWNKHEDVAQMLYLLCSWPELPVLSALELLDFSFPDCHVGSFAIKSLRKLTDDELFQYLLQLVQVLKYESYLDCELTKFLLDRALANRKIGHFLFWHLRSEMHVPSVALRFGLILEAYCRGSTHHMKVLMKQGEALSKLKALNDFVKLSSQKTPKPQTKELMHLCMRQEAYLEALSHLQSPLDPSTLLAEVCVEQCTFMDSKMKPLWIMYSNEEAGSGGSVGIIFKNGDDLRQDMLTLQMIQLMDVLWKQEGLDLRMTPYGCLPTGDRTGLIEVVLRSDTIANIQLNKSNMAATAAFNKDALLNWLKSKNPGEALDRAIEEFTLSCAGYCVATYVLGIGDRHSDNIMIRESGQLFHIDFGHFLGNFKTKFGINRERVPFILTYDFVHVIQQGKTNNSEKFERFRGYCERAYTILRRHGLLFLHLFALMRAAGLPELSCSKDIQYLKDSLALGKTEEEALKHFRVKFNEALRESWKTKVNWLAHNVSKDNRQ
Chain of p110δ/p85α (P27986 whole entry partner): as the sequence (P27986 whole entry partner) above

[2] = T47D cells, read-out: T47D proliferation
[3] = T47D cells, read-out: T47D proliferation IC50
[4] = in vitro, read-out: PI3K β IC50
[5] = in vitro, read-out: PI3K α IC50
[6] = in vitro, read-out: PI3K γ IC50
[7] = in vitro, read-out: PI3K δ IC50
[8] = PC3, read-out: PC3 proliferation In Vitro IC50

Chain of p110β/p85α (P42338 whole entry): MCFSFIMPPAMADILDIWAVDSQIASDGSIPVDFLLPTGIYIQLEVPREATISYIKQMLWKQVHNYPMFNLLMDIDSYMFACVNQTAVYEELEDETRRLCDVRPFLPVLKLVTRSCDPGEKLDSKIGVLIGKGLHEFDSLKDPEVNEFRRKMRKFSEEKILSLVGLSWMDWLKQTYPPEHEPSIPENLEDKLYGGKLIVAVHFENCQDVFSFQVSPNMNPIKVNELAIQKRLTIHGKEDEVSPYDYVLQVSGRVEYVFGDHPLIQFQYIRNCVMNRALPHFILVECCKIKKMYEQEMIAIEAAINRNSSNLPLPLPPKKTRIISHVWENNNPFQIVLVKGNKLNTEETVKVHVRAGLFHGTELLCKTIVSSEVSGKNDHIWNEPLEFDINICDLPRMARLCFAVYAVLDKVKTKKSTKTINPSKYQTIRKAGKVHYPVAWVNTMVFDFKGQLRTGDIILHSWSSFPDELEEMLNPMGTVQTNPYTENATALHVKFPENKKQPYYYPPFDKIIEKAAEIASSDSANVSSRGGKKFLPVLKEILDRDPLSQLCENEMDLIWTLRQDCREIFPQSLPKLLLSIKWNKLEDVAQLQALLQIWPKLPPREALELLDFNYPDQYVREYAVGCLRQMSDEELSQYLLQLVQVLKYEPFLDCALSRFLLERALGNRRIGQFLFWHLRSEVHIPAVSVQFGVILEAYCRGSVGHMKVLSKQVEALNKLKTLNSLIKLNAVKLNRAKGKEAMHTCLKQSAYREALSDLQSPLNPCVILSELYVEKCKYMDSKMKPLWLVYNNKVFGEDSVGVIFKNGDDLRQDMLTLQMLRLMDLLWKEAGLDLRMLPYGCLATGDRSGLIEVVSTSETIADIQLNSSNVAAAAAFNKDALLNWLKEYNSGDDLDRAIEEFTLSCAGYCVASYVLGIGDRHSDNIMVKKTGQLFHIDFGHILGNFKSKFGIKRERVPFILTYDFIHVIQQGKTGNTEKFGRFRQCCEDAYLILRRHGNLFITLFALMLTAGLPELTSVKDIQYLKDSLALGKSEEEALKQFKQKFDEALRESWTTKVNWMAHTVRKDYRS
Chain of p110β/p85α (P27986 whole entry partner): as the sequence (P27986 whole entry partner) above

Row | SMILES | IC50 [1, 2] [µM] | IC50 (p110β/p85α; read-out: PI3K β IC50) [µM] | IC50 (p110α/p85α; read-out: PI3K α IC50) [µM] | IC50 (p110γ; read-out: PI3K γ IC50) [µM] | IC50 (p110δ/p85α; read-out: PI3K δ IC50) [µM] | other results
1 | Nc1noc2cc(-c3ccc4nccc(-c5ccncc5)c4c3)ccc12 [compound 16] | < 1 | < 10 | < 0.1 | < 1 | < 10 | 
2 | CN1CCN(c2ccc(-c3cnc4ccc(-c5ccc6oc(N)nc6c5)cn34)cn2)CC1 [compound 42] | < 10 |  | < 0.1 | < 1 | < 1 | 
3 | Nc1nc2cc(-c3ccc4ncc(-c5ccc6nc(N)oc6c5)n4c3)ccc2o1 [compound 50] | < 10 |  | < 0.1 | < 0.1 | < 10 | 
4 | Nc1nc2cc(-c3ccc4ncc(NC5CCOCC5)nc4c3)ccc2o1 [compound 96] | < 1 | < 10 | < 0.1 | < 0.1 | < 1 | 
5 | CC(C)N1CCC(Nc2ncnc3ccc(-c4ccc5oc(N)nc5c4)cc23)CC1 [compound 101] | < 10 | < 10 | < 0.1 | < 10 | < 1 | 
6 | CN(C)CC(=O)N1CCC(Nc2ncnc3ccc(-c4ccc5oc(N)nc5c4)cc23)CC1 [compound 103] | < 10 | < 1 | < 0.1 | < 1 | < 1 | 
7 | CS(=O)(=O)N1CCN(C(=O)c2cnc3ccc(-c4ccc5oc(N)nc5c4)cn23)CC1 [compound 112] | < 1 |  | < 0.1 | < 1 | < 10 | 
8 | Nc1nc2cc(-c3ccc4ncc(NCCN5CCOCC5)nc4c3)ccc2o1 [compound 133] | < 10 | < 1 | < 0.1 | < 1 | < 1 | 
9 | CC(=O)N1CCC(N(C)c2ncnc3ccc(-c4ccc5oc(N)nc5c4)cc23)CC1 [compound 137] | < 1 | < 1 | < 0.1 | < 1 | < 1 | 
10 | CN1CCC(NC(=O)c2cnc3ccc(-c4ccc5oc(N)nc5c4)cn23)CC1 [compound 159] | < 10 | < 1 | < 0.1 | < 1 | < 0.1 | 
11 | Cc1nccn1-c1cnc2ccc(-c3ccc4oc(N)nc4c3)cc2n1 [compound 174] | < 10 | < 1 | < 0.1 | < 0.1 | < 10 | 
12 | CS(=O)(=O)CCN1CCC(Nc2cnc3ccc(-c4ccc5oc(N)nc5c4)cc3n2)CC1 [compound 181] | < 10 | < 10 | < 0.1 | < 0.1 | < 1 | 
13 | CCn1cnc2ccc(-c3ccc4oc(N)nc4c3)cc2c1=O [compound 183] | < 10 | < 10 | < 0.1 | < 0.1 | < 10 | 
14 | Nc1nc2cc(-c3ccc4ncc(C(=O)N5CCCC5)n4c3)ccc2o1 [compound 186] | < 10 | < 10 | < 0.1 | < 0.1 | < 1 | 
15 | Nc1nc2cc(-c3ccc4ncc(C(=O)NC5CC5)n4c3)ccc2o1 [compound 187] | < 1 | < 10 | < 0.1 | < 0.1 | < 1 | 
16 | CCNC(=O)c1cnc2ccc(-c3ccc4oc(N)nc4c3)cn12 [compound 188] | < 1 | < 1 | < 0.1 | < 0.1 | < 1 | 
17 | Nc1nc2cc(-c3ccc4ncc(C(=O)NCCO)n4c3)ccc2o1 [compound 189] | < 1 | < 1 | < 0.1 | < 1 | < 1 | 
18 | Nc1nc2cc(-c3ccc4ncc(C(=O)N5CC(O)C5)n4c3)ccc2o1 [compound 200] |  |  |  |  |  | IC50 [1, 3]: < 10 µM; IC50 (p110β/p85α; [4]): < 10 µM; IC50 (p110α/p85α; [5]): < 0.1 µM; IC50 (p110γ; [6]): < 0.1 µM; IC50 (p110δ/p85α; [7]): < 10 µM
19 | CC(C)(N)C(=O)N1CCN(c2cnc3ccc(-c4ccc5oc(N)nc5c4)cc3n2)CC1 [compound 213] |  |  |  |  |  | IC50 [1, 3]: < 1 µM; IC50 (p110β/p85α; [4]): < 1 µM; IC50 (p110α/p85α; [5]): < 0.1 µM; IC50 (p110δ/p85α; [7]): < 1 µM
20 | Cc1ccc(NC(=O)c2cnc3ccc(-c4ccc5oc(N)nc5c4)cn23)cn1 [compound 294] |  |  |  |  |  | IC50 [1, 3]: < 10 µM; IC50 (p110α/p85α; [5]): < 0.1 µM; IC50 (p110γ; [6]): < 0.1 µM; IC50 (p110δ/p85α; [7]): < 10 µM
21 | Nc1nc2cc(-c3ccc4ncc(N5CC(N6CCN(CC7CC7)CC6)C5)nc4c3)ccc2o1 [compound 335] |  |  |  |  |  | IC50 [1, 3]: < 1 µM; IC50 (p110β/p85α; [4]): < 10 µM; IC50 (p110α/p85α; [5]): < 0.1 µM; IC50 (p110δ/p85α; [7]): < 10 µM
22 | Nc1nc2cc(-c3ccc4ncc(N5CC(N6CCC(O)CC6)C5)nc4c3)ccc2o1 [compound 341] |  |  |  |  |  | IC50 [1, 3]: < 10 µM; IC50 (p110α/p85α; [5]): < 1 µM; IC50 (p110γ; [6]): < 10 µM; IC50 (p110δ/p85α; [7]): < 10 µM
23 | Nc1nc2cc(-c3ccc4ncc(C(=O)N5C6CCC5COC6)n4c3)ccc2o1 [compound 480] |  |  |  |  |  | IC50 [1, 8]: < 1 µM; IC50 (p110α/p85α; read-out: PI3K α In Vitro IC50): < 0.1 µM; IC50 (p110γ; read-out: PI3K γ In Vitro IC50): < 1 µM; IC50 (p110δ/p85α; read-out: PI3K δ In Vitro IC50): < 10 µM
24 | CN1CCC(n2cnc3ccc(-c4cnc(Cl)c(NS(C)(=O)=O)c4)cc3c2=O)CC1 [compound 526] |  |  |  |  |  | IC50 [1, 8]: < 10 µM; IC50 (p110β/p85α; read-out: PI3K β In Vitro IC50): < 10 µM; IC50 (p110α/p85α; read-out: PI3K α In Vitro IC50): < 0.1 µM; IC50 (p110δ/p85α; read-out: PI3K δ In Vitro IC50): < 1 µM

Now from value to compound, other results behind:

Row | IC50 [1, 2] [µM] | IC50 (p110β/p85α; read-out: PI3K β IC50) [µM] | IC50 (p110α/p85α; read-out: PI3K α IC50) [µM] | IC50 (p110γ; read-out: PI3K γ IC50) [µM] | IC50 (p110δ/p85α; read-out: PI3K δ IC50) [µM] | SMILES | other results
25 | < 10 | < 0.1 | < 0.1 | < 1 | < 10 | CN1CCN(c2cnc3ccc(-c4ccc5oc(N)nc5c4)cc3n2)CC1 [compound 65] | 
26 | < 10 | < 0.1 | < 0.1 | < 0.1 | < 1 | CC(C)N1CCN(c2cnc3ccc(-c4ccc5oc(N)nc5c4)cc3n2)CC1 [compound 84] | 
27 | < 10 | < 0.1 | < 0.1 | < 1 | < 10 | Nc1nc2cc(-c3ccc4ncc(N5CCNCC5)nc4c3)ccc2o1 [compound 88] | 
28 | < 1 | < 1 | < 0.1 | < 1 | < 10 | CS(=O)(=O)CCN1CCN(c2cnc3ccc(-c4ccc5oc(N)nc5c4)cc3n2)CC1 [compound 90] | 
29 | < 10 | < 10 | < 0.1 | < 1 | < 1 | Nc1nc2cc(-c3ccc4ncc(N5CCC(O)CC5)nc4c3)ccc2o1 [compound 99] | 
30 | < 1 | < 0.1 | < 0.1 | < 1 | < 10 | Nc1nc2cc(-c3ccc4ncc(N5CCN(CCO)CC5)nc4c3)ccc2o1 [compound 100] | 
31 | < 1 | < 1 | < 0.1 |  | < 10 | CNC(=O)CN1CCN(c2cnc3ccc(-c4ccc5oc(N)nc5c4)cc3n2)CC1 [compound 120] | 
32 | < 1 | < 0.1 | < 0.1 | < 0.1 | < 0.1 | Nc1nc2cc(-c3ccc4ncc(N5CCN(C(=O)[C@@H]6CCCN6)CC5)nc4c3)ccc2o1 [compound 121] | 
33 | < 1 | < 1 | < 0.1 | < 10 | < 1 | CC(N)C(=O)N1CCN(c2cnc3ccc(-c4ccc5oc(N)nc5c4)cc3n2)CC1 (centres unmarked) [compound 134] | 
34 | < 1 | < 1 | < 0.1 | < 1 | < 1 | CN(C)CC(=O)N1CCN(c2cnc3ccc(-c4ccc5oc(N)nc5c4)cc3n2)CC1 [compound 139] | 
35 | < 10 | < 0.1 | < 0.1 | < 1 | < 10 | CCN1CCN(c2cnc3ccc(-c4ccc5oc(N)nc5c4)cc3n2)CC1 [compound 152] | 
36 | < 1 | < 0.1 | < 0.1 | < 1 | < 1 | Nc1nc2cc(-c3ccc4ncc(N5CCN(CC6CC6)CC5)nc4c3)ccc2o1 [compound 153] | 
37 | < 1 | < 1 | < 0.1 | < 0.1 | < 10 | CNC(=O)N1CCN(c2cnc3ccc(-c4ccc5oc(N)nc5c4)cc3n2)CC1 [compound 154] | 
38 | < 1 | < 1 | < 0.1 | < 1 | < 1 | CN1CC(C(=O)N2CCN(c3cnc4ccc(-c5ccc6oc(N)nc6c5)cc4n3)CC2)C1 [compound 156] | 
39 | < 10 | < 1 | < 0.1 |  | < 10 | Nc1nc2cc(-c3ccc4ncc(N5CCC(N)CC5)nc4c3)ccc2o1 [compound 168] | 
40 | < 1 | < 1 | < 0.1 | < 1 | < 1 | Nc1nc2cc(-c3ccc4ncc(N5CCC(N6CCOCC6)CC5)nc4c3)ccc2o1 [compound 171] | 
41 | < 10 | < 1 | < 0.1 | < 0.1 | < 10 | CC1CN(c2cnc3ccc(-c4ccc5oc(N)nc5c4)cc3n2)CCO1 (centres unmarked) [compound 173] | 
42 | < 1 | < 1 | < 0.1 | < 0.1 | < 1 | Nc1nc2cc(-c3ccc4ncc(N5CCCC5)nc4c3)ccc2o1 [compound 176] | 
43 | < 10 | < 1 | < 0.1 | < 10 | < 10 | C[C@@H]1CN(c2cnc3ccc(-c4ccc5oc(N)nc5c4)cc3n2)CCN1 [compound 179] | 
44 | < 10 | < 1 | < 0.1 | < 1 | < 1 | CC(C)(C)N1CCN(c2cnc3ccc(-c4ccc5oc(N)nc5c4)cc3n2)CC1 [compound 182] | 
